Source: PMC10986609, “Identification of fungal natural products with potent inhibition in Toxoplasma gondii” (Microbiology Spectrum, 2024)
Read-outs that look alike come from different tables or passages of the source. Non-standard residues stand in square brackets, D forms with d. Residues, ends and D or L forms follow the SMILES beside them. *: point of attachment. X1 = CC(C)C[C@@H](CN1CCC[N+]2=C1CCC2)N*; X2 = CC(C)C[C@@H](C[N+]1=C2CCCN2CCC1)N*; Pip = O=C(O)[C@@H]1CCCCN1; Iva = CC[C@](C)(N)C(=O)O; Aib = CC(C)(N)C(=O)O; βAla = NCCC(=O)O

What was measured:
[1] = test system: Toxoplasma gondii tachyzoites (RH88); experiment: microbe, parasite or virus in culture; details: read-out: TgRH88 IC50 (mean ± SEM)
Protocol: For the initial fixed concentration screening and IC50 determination in T. gondii, we utilized a luciferase expressing RH88 strain to quantify the number of live, actively replicating parasites. To construct this strain, the Fluc and DHFR selection markers had been integrated into the UPRT locus through CRISPR/Cas9, rendering the strain pyrimethamine-resistant ([6]). Screening was performed using a pure compound library provided by the University of Oklahoma Natural Products Discovery Group, containing 683 compounds derived primarily from fungal secondary metabolites. For purposes of testing, HFFs were grown in 96-well microtiter plates in preparation. The media we used to grow cells was referred to a D10 media that was composed of Dulbecco's Modified Eagle Medium (Thermo Fisher; Cat # 11995073), 10% Fetal Bovine Serum (Sigma-Aldrich; Cat # 12306C), 1 × non-essential amino acids (100 ×; Thermo Fisher; Cat # 11140050), HEPES buffer (1M; Fisher Scientific; Cat # SH3023701) at 0.4M, and 10 mg/mL of gentamicin (Fisher Scientific; Cat # 15710072). Compounds were then diluted to 10 µM in 100 µL of fresh D10 media. Each plate utilized artemisinin and DMSO vehicle controls. To each well, 2,500 parasites per 100 µL of D10 media were added. Three technical replicates were then performed. After 48 hours, 160 µL of the D10 media was removed, and plates were subjected to freezing then thawing. Following this, 10 µL of the passive lysis buffer (Promega; Cat# E1910) was added and incubated at room temperature for 15 min. Finally, 100 µL of luciferase assay reagent (Promega; Cat# E1501) was added to each well, and luminescence was measured using a PHERAstar FSX plate reader (BMG Labtech, Germany).
(§1) For IC50 and cytotoxicity determination, we used 384 plates with confluent HFF cells. Compounds were serially diluted 3-fold with a starting concentration of 20 µM. Samples were further diluted by adding an equal volume of media containing 700 parasites. DMSO and […] of KAE609 were used as negative and positive controls, respectively. Assays were performed with a total of three technical replicates and two biological replicates. After incubation for 48 hours, 50 µL of media was removed, and plates were subjected to freezing and thawing. Following this, 10 µL of passive lysis buffer was added and plates were incubated for 15 min at room temperature. Finally, 30 µL of luciferase reagent was added, and the luminescence was measured immediately using a PHERAstar FSX. In parallel, cytotoxicity dose response was performed in the same fashion without the addition of parasites. Cell counting kit-8 reagent (GlpBio; Cat # GK10001) was added at a 1:10 dilution and incubated at 37°C, 5% CO2 for 1 hour. The absorbance was then measured at 450 nm using a PHERAstar FSX. The data management system CDD vault was used for curve fitting and IC50 determination.

[2] = test system: human foreskin fibroblasts (HFFs); experiment: HFF cytotoxicity dose response (cell counting kit-8); details: for IC50: read-out: HFF IC50 (mean ± SEM); for toxicity to HFFs: highest concentrations tested (20 µM)
Protocol: as §1, with “Samples” for “For IC50 and cytotoxicity determination, we used 384 plates with confluent HFF cells. Compounds were serially diluted 3-fold with a starting concentration of 20 µM. Samples”

[3] = test system: Plasmodium falciparum (Dd2); details: read-out: PfDd2 IC50, cited from earlier work
in vitro = details: human
Protocol: as §1, with “Samples” for “For IC50 and cytotoxicity determination, we used 384 plates with confluent HFF cells. Compounds were serially diluted 3-fold with a starting concentration of 20 µM. Samples”

[4] = mean of duplicate or triplicate experiments
[5] = luciferase expressing RH88 in HFF, 48 hours
[6] = cytotoxicity, no parasites, 48 hours, CCK-8

C[C@H]1Cc2c([nH]c3cc(Cl)c(F)cc23)[C@@]2(N1)C(=O)Nc1ccc(Cl)cc12 [KAE609, reference compound]
IC50 ([1]; Toxoplasma gondii, 48 h): 440 ± 34.8 nM
IC50 ([2]; Homo sapiens, Fibroblast, 48 h): > 20000 nM

CN(C)c1ccc2nc3ccc(=[N+](C)C)cc-3sc2c1 [Methylene blue, reference compound]
IC50 ([1]; Toxoplasma gondii, 48 h): 258 ± 0.95 nM
IC50 ([2]; Homo sapiens, Fibroblast, 48 h): > 20000 nM

CCC(=O)CCCCCC1NC(=O)C2CCCCN2C(=O)C(C(C)C)NC(=O)C(Cc2cn(OC)c3ccccc23)NC1=O (stereo not shown) [compound 120251, Apicidin C]
IC50 [3, 4]: 236 nM
IC50 ([1]; Toxoplasma gondii, 48 h): 25.9 ± 10.2 nM
IC50 ([2]; Homo sapiens, Fibroblast, 48 h): > 20000 nM

C=C1Cc2ccc3[nH]c4c(c3c2[C@H]2[C@@H]1C[C@@H]2C(C)(C)O)C[C@@H]1CC[C@@]2(O)C3=C[C@@H](O)[C@@H](C(=C)C)O[C@H]3CC[C@]2(C)[C@@]41C [compound 120253, Secopenitrem D]
IC50 [1, 5]: 14100 nM
IC50 [2, 6]: > 20000 nM

COC(=O)[C@@]12Oc3ccc(-c4ccc5c(c4O)C(O)C4=C(O)C[C@H](C)[C@@H](O)[C@]4(C(=O)OC)O5)c(O)c3C(=O)C1=C(O)C[C@H](C)[C@H]2O (stereo partly shown) [compound 130002, Secalonic acid D]
IC50 [3, 4]: 1300 nM
IC50 ([1]; Toxoplasma gondii, 48 h): 334 ± 103 nM
IC50 ([2]; Homo sapiens, Fibroblast, 48 h): 3730 nM

CC(O)[C@@]12SS[C@]3(C(=O)N1C)[C@@H](O)C1([C@@]45c6ccccc6N[C@@H]4N4C(=O)[C@]6(C(C)O)SS[C@]4(C(=O)N6C)[C@H]5O)c4ccccc4N[C@@H]1N3C2=O (stereo partly shown) [compound 130016, Verticillin D]
IC50 [1, 5]: 36.2 ± 1.8 nM
IC50 [2, 6]: 943.2 ± 6.4 nM

C=C[C@H]1C[C@@H](C)C[C@@H](C)[C@@H]1c1c(O)ccn(O)c1=O [compound 130034, Pyridoxatin]
IC50 [1, 5]: > 8560 nM
IC50 [2, 6]: > 20000 nM

COC(=O)C12Oc3c(c(O)cc4c3C3C=CC5(C4)C(=O)c4cc(C)cc(O)c4C(O)=C5C3=O)C(O)=C1C(=O)CCC2O (stereo not shown) [compound 130143, Xanthoquinodin B2]
IC50 [3, 4]: 1010 nM
IC50 ([1]; Toxoplasma gondii, 48 h): 131 ± 36.5 nM
IC50 ([2]; Homo sapiens, Fibroblast, 48 h): > 20000 nM

COC(=O)[C@@]12Oc3cc4c(c(O)c3C(=O)C1=C(O)CC[C@@H]2O)[C@@H]1C=C[C@@]2(C4)C(=O)c3cc(C)cc(O)c3C(O)=C2C1=O [compound 130144, Xanthoquinodin A1]
IC50 [3, 4]: 250 nM
IC50 ([1]; Toxoplasma gondii, 48 h): 112 ± 74 nM
IC50 (in vitro): 12900 ± 1900 nM
IC50 ([2]; Homo sapiens, Fibroblast, 48 h): 12900 nM

COC(=O)[C@]12Oc3cc4c(c(O)c3C(=O)C1=C(O)CC[C@@H]2O)[C@@H]1C=C[C@@]2(C4)C(=O)c3cc(C)cc(O)c3C(O)=C2C1=O [compound 130147, Xanthoquinodin A2]
IC50 [3, 4]: 680 nM
IC50 ([1]; Toxoplasma gondii, 48 h): 56.4 ± 12.8 nM
IC50 (in vitro): 12300 ± 300 nM
IC50 ([2]; Homo sapiens, Fibroblast, 48 h): 12300 nM

CC[C@](C)(NC(=O)[C@H](CC(C)C)NC(=O)[C@H](C)NC(=O)C(C)(C)NC(=O)[C@@H]1CCCCN1C(=O)C(C)(C)NC(=O)C(C)(C)NC(=O)CNC(=O)CCNC(=O)[C@H](CC(C)C)NC(=O)C(C)(C)NC(=O)C(C)(C)NC(=O)[C@@H]1CCCCN1C(=O)C(C)(C)NC(=O)[C@@H]1CCCCN1C(C)=O)C(=O)N[C@@H](CC(C)C)CN1CCC[N+]2=C1CCC2 [compound 150003, Efrapeptin F] (Ac-[Pip][Aib][Pip][Aib][Aib]L[βAla]G[Aib][Aib][Pip][Aib]AL[Iva]-X1; N-terminus and C-terminus assumed)
IC50 ([3]; ref Lee et al. ([8])): 399 nM
IC50 [1, 5]: 55.5 ± 11.8 nM
IC50 [2, 6]: > 20000 nM

CC[C@](C)(NC(=O)[C@H](CC(C)C)NC(=O)[C@H](C)NC(=O)C(C)(C)NC(=O)[C@@H]1CCCCN1C(=O)C(C)(C)NC(=O)C(C)(C)NC(=O)CNC(=O)CCNC(=O)[C@H](CC(C)C)NC(=O)C(C)(C)NC(=O)C(C)(C)NC(=O)[C@@H]1CCCCN1C(=O)C(C)(C)NC(=O)[C@@H]1CCCCN1C(C)=O)C(=O)N[C@@H](CC(C)C)C[N+]1=C2CCCN2CCC1 [compound 150003, Efrapeptin F] (Ac-[Pip][Aib][Pip][Aib][Aib]L[βAla]G[Aib][Aib][Pip][Aib]AL[Iva]-X2)
toxicity to HFFs [2]: no toxicity

CC[C@](C)(NC(=O)[C@H](CC(C)C)NC(=O)[C@H](C)NC(=O)C(C)(C)NC(=O)[C@@H]1CCCCN1C(=O)C(C)(C)NC(=O)C(C)(C)NC(=O)CNC(=O)CCNC(=O)[C@H](CC(C)C)NC(=O)C(C)(C)NC(=O)[C@](C)(CC)NC(=O)[C@@H]1CCCCN1C(=O)C(C)(C)NC(=O)[C@@H]1CCCCN1C(C)=O)C(=O)N[C@@H](CC(C)C)CN1CCC[N+]2=C1CCC2 [compound 150004, Efrapeptin G] (Ac-[Pip][Aib][Pip][Iva][Aib]L[βAla]G[Aib][Aib][Pip][Aib]AL[Iva]-X1; N-terminus and C-terminus assumed)
IC50 ([3]; ref Lee et al. ([8])): 460 nM
IC50 [1, 5]: 12.3 ± 2.3 nM
IC50 [2, 6]: > 20000 nM

CC[C@](C)(NC(=O)[C@H](CC(C)C)NC(=O)[C@H](C)NC(=O)C(C)(C)NC(=O)[C@@H]1CCCCN1C(=O)C(C)(C)NC(=O)C(C)(C)NC(=O)CNC(=O)CCNC(=O)[C@H](CC(C)C)NC(=O)C(C)(C)NC(=O)[C@](C)(CC)NC(=O)[C@@H]1CCCCN1C(=O)C(C)(C)NC(=O)[C@@H]1CCCCN1C(C)=O)C(=O)N[C@@H](CC(C)C)C[N+]1=C2CCCN2CCC1 [compound 150004, Efrapeptin G] (Ac-[Pip][Aib][Pip][Iva][Aib]L[βAla]G[Aib][Aib][Pip][Aib]AL[Iva]-X2)
toxicity to HFFs [2]: no toxicity

CCCCC[C@@H](O)C[C@@H](O)C[C@@H]1Cc2cc3cc(OC)c(-c4c(OC)cc5cc6c(c(O)c5c4O)C(=O)O[C@H](C[C@H](O)C[C@H](O)CCCCC)C6)c(O)c3c(O)c2C(=O)O1 [compound 150020, Dinapinone A]
IC50 [1, 5]: 3170 nM
IC50 [2, 6]: 6670 nM

COC(=O)C1=CC(O)C(O)C(O)C1N1CC(O)C(OC(C)=O)C1Cc1ccc(OC)cc1 (stereo not shown) [compound 150029]
IC50 ([1]; Toxoplasma gondii, 48 h): 585 ± 14.6 nM
IC50 at 48 h (in vitro; confluent human foreskin fibroblast (HFF) cells): 28500 ± 2400 nM
IC50 ([2]; Homo sapiens, Fibroblast, 48 h): 28500 nM

COC(=O)c1c(Sc2c(O)cc(OC)c(C(=O)c3c(O)cc(C)cc3O)c2C(=O)OC)c(O)cc(OC)c1C(=O)c1c(O)cc(C)cc1O [compound 150052, Polluxochrin]
IC50 ([1]; Toxoplasma gondii, 48 h): 801 ± 163 nM
IC50 ([2]; Homo sapiens, Fibroblast, 48 h): > 60000 nM

C[C@H]1CCC/C=C/[C@@H]2C[C@H](O)C[C@H]2[C@H](O)/C=C/C(=O)O1 [compound 160010, Brefeldin A]
IC50 ([1]; Toxoplasma gondii, 48 h): 243 ± 78.4 nM
IC50 ([2]; Homo sapiens, Fibroblast, 48 h): 6430 nM

CN1C(=O)[C@]2(Cc3cn([C@]45C[C@@]67SS[C@@](CO)(C(=O)N6[C@H]4Nc4ccccc45)N(C)C7=O)c4ccccc34)SS[C@@]1(CO)C(=O)N2C [compound 170066, Chetomin]
IC50 ([1]; Toxoplasma gondii, 48 h): 62.2 ± 3.75 nM
IC50 ([2]; Homo sapiens, Fibroblast, 48 h): 369 ± 72.6 nM

COc1c(C[C@@H](C)OC(=O)Oc2ccc(O)cc2)c2c3c(C[C@@H](C)OC(=O)c4ccccc4)c(OC)c(=O)c4c(O)cc(OC)c(c5c(OC)cc(O)c(c1=O)c52)c43 [compound 170068, Calphostin C]
IC50 [3, 4]: 410 nM
IC50 ([1]; Toxoplasma gondii, 48 h): 1140 nM
IC50 ([2]; Homo sapiens, Fibroblast, 48 h): > 20000 nM

CC1=C[C@@H]2/C=C(\C)CC[C@H](O)[C@H](O)/C=C/C(=O)[C@]23C(=O)N[C@@H](CC(C)C)[C@@H]3[C@@H]1C [compound 170081, Aspochalasin D]
IC50 ([1]; Toxoplasma gondii, 48 h): 1270 nM
IC50 ([2]; Homo sapiens, Fibroblast, 48 h): 30300 nM

Alpha-cyclopiazonic acid [compound 170027]
IC50 [1, 5]: 1130 nM
IC50 [2, 6]: > 40000 nM

PF-1140 [compound 120159]
IC50 [1, 5]: 3290 nM
IC50 [2, 6]: > 20000 nM

Verticillin [compound 130038]
IC50 [3, 4]: 501 nM
IC50 [1, 5]: 79 ± 29.3 nM
IC50 [2, 6]: 82.4 ± 41.8 nM
